Measurements published in ChEMBL document CHEMBL4811237, “Phenanthridine Derivative Host Heat Shock Cognate 70 Down-Regulators as Porcine Epidemic Diarrhea Virus Inhibitors” (J Nat Prod, 2021).
Activity calls are given as the source filed them. The calls are words filed in the database; no cut-off is given here.

What was measured:
[1] = test system: Porcine epidemic diarrhea virus; assay: Antiviral activity against PEDV 85-7 infected in Marc145 cells assessed as inhibition of viral transcription after 24 hrs by qPCR analysis; type: functional, organism-based; settings: 85-7, MARC145, 24 h
[2] = Cytotoxicity against African green monkey MARC145 cells by CCK8 assay; type: cell-based; settings: chlorocebus aethiops
[3] = test system: Porcine epidemic diarrhea virus; assay: Antiviral activity against PEDV 85-7 infected in Marc145 cells assessed as reduction in PEDV-N protein level at 10 uM by Western blotting analysis; type: functional, organism-based
[4] = test system: Porcine epidemic diarrhea virus; assay: Antiviral activity against PEDV 85-7 infected in Marc145 cells assessed as down regulation of Hsc70 mRNA expression at 10 uM after 24 hrs by qPCR analysis; type: functional, organism-based
MARC145 = assay: Suppression of Hsc70 expression in African green monkey Marc145 cells assessed as Hsc70 mRNA destabilization by measuring half life at 20 uM (reference value: 6.51 hrs); type: functional, cell-based; settings: Chlorocebus aethiops
[5] = test system: Porcine epidemic diarrhea virus; assay: Antiviral activity against PEDV 85-7 infected in Marc145 cells assessed as inhibition of viral replication by measuring reduction in mRNA level at 10 uM after 24 hrs by qPCR analysis; type: functional; parameters: scale not given: the % may be the effect or the level left
[6] = Selectivity index, ratio of CC50 for cytotoxicity against African green monkey MARC145 cells to EC50 for antiviral activity against PEDV 85-7; type: toxicity, cell-based; settings: read-out: Ratio CC50/EC50
[7] = test system: Porcine epidemic diarrhea virus; assay: Antiviral activity against PEDV 85-7 infected in Marc145 cells assessed as reduction in PEDV-N protein level by Western blotting analysis; type: functional, organism-based; settings: dose 0.1-10 µM
[8] = test system: Porcine epidemic diarrhea virus; assay: Antiviral activity against PEDV 85-7 infected in Marc145 cells assessed as reduction in viral virion at 20 uM by plaque assay; type: functional, organism-based
[9] = test system: Porcine epidemic diarrhea virus; assay: Antiviral activity against PEDV 85-7 infected in Marc145 cells assessed as reduction in PDEV protein level at 10 uM after 24 hrs by indirect immunofluorescence assay; type: functional, organism-based
[10] = test system: Porcine epidemic diarrhea virus; assay: Antiviral activity against PEDV (NK-2) inoculated in piglets assessed as reduction in multifocal diffusion of villous atrophy at 50 mg/kg, po administered every 24 hrs for 72 hrs by HE staining based microscopic analysis; type: functional, organism-based
[11] = test system: Porcine epidemic diarrhea virus; assay: Antiviral activity against PEDV (NK-2) inoculated in piglets assessed as reduction in fusion of numerous villi at 50 mg/kg, po administered every 24 hrs for 72 hrs by HE staining based microscopic analysis; type: functional, organism-based
[12] = test system: Porcine epidemic diarrhea virus; assay: Antiviral activity against PEDV 85-7 infected in Marc145 cells expressing pEGFP-N1/Hsc70 protein assessed as decrease in viral RNA level at 20 uM after 24 hrs by qPCR analysis; type: functional
[13] = test system: Porcine epidemic diarrhea virus; assay: Antiviral activity against PEDV (NK-2) inoculated in piglets assessed as reduction in viral replication in intestine at 50 mg/kg, po administered every 24 hrs for 72 hrs by immunofluorescence assay; type: functional, organism-based
[14] = test system: Porcine epidemic diarrhea virus; assay: Antiviral activity against PEDV 85-7 infected in Marc145 cells assessed as down regulation of Hsc70 protein expression after 24 hrs by Western blotting analysis; type: functional, organism-based; settings: dose 0.1-10 µM
[15] = test system: Porcine epidemic diarrhea virus; assay: Antiviral activity against PEDV (NK-2) inoculated in piglets assessed as reduction in swelling sloughing and attenuation of villi at 50 mg/kg, po administered every 24 hrs for 72 hrs by HE staining based microscopic analysis; type: functional, organism-based
[16] = test system: Porcine epidemic diarrhea virus; assay: Antiviral activity against PEDV 85-7 infected in Marc145 cells assessed as suppression of viral assembly; type: functional, organism-based
[17] = test system: Porcine epidemic diarrhea virus; assay: Antiviral activity against PEDV 85-7 infected in Marc145 cells expressing pEGFP-N1/Hsc70 protein assessed as decrease in PEDV-N-protein level at 20 uM after 24 hrs […]; type: functional
[18] = test system: Porcine epidemic diarrhea virus; assay: Antiviral activity against PEDV (NK-2) inoculated in piglets assessed as reduction in mortality at 50 mg/kg, po administered every 24 hrs for 72 hrs; type: functional, organism-based

EC50 [1]	SMILES	CC50 [2]	Activity [3]	Activity [4]	T1/2 (MARC145)	Activity [5]	selectivity ratio [6]	Activity [7]	Activity [8]	Activity [9]	Activity [10]	Activity [11]	fold change (FC) [12]	Activity [13]	Activity [14]	Activity [15]	Activity [16]	fold change (FC) [17]	Activity [18]
3.26 µM	CCc1cccc2c1N(C)Cc1cc(OC(C)=O)c(OC(C)=O)cc1-2	> 100 µM	Active	Active	2.61 h	70%	> 30												
0.72 µM	CCc1cccc2c1N(C)Cc1cc(OCc3cc(C)n(C)n3)c(OCc3cc(C)n(C)n3)cc1-2	> 100 µM	Active	Active	1.84 h	70%	> 134	Dose-Dependent Effect	Active	Active	Active	Active	29.3	Active	Dose-Dependent Effect	Active	Active	20.5	Active
1.89 µM	CCc1cccc2c1N(C)Cc1cc(OC)c(OC)cc1-2	> 100 µM	Active	Active	2.31 h	70%	> 53		Active	Active	Active	Active		Active		Active			Active
